Here are results for one compound from patent US8158360B2, “Effects of inhibitors of FGFR3 on gene transcription” (priority 2005, dated 2012).

Holding throughout (experiment): Sensitivity of multiple myeloma cell line to CHIR-258 treatment
What all share (format): cell-based, human

One assay deals with H929. The following applies: H929: N13 Ras mutant, FGFR3 wild-type (WT).
The subject of a further assay is U266. The following applies: U266: Ras WT, FGFR3 negative.
The next assay deals with KMS18. The conditions noted are these: KMS18: Ras WT, FGFR3G384D mutant.
The test system of the next assay is KMS11. The conditions noted are these: KMS11: Ras WT, FGFR3Y373C mutant.
A further assay concerns UTMC2. The conditions noted are these: UTMC2: Ras WT, FGFR3WT.

In the case of `CN1CCN(c2ccc3nc(-c4c(N)c5c(F)cccc5[nH]c4=O)[nH]c3c2)CC1` [CHIR-258, 4-Amino-5-fluoro-3-[6-(4-methylpiperazin-1-yl)-1H-benzimidazol-2-yl]quinolin-2(1H)-one], the “sensitivity of cell line to treatment” value with H929 was “resistant”; with U266 it was “resistant”; with KMS18, “sensitive”; in the assay on KMS11, “sensitive”; in the assay on UTMC2, “resistant”.
